Like-named read-outs stand apart in the source and are kept apart here. Each block holds one compound with its values, some of them ahead of it.
What was measured:
[1] = molecular target: T1, CYP17 (human testicular microsome) (Homo sapiens, UniProt P05093); experiment: CYP17 enzymatic assay (% inhibition at 1 nM) (Biological Example 12); assay type: biochemical
T1 construct: using microsomal fraction from human testis (Celsis Cat #S00110) as the enzyme source; tissue Celsis S00110; host or cells: human testis microsomal fraction
T1 sequence (P05093 1-508): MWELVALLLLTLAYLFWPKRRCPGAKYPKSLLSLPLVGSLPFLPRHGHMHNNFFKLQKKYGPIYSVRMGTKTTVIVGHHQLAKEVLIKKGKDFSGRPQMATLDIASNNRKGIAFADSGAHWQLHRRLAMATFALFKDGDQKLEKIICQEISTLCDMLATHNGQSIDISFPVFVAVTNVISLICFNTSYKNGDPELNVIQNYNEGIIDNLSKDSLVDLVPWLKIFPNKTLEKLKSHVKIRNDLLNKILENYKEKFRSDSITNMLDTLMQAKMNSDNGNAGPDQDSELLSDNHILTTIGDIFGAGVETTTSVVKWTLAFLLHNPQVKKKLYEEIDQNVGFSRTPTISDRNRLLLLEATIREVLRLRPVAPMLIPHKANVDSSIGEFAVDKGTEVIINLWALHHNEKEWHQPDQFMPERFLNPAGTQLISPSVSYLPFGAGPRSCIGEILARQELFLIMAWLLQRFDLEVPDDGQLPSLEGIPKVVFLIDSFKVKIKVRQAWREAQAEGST

[2] = molecular target: T2, Cyp21 enzyme (Human HEK 293-Cyp21 stable transfected cells) (Homo sapiens, UniProt P08686); experiment: CYP21-HEK293 enzymatic assay (% inhibition at 100 nM) (Biological Example 10); assay type: cell-based; conditions: HEK 293-Cyp21 cells
T2 construct: expressed in transfected cells
T2 sequence (P08686 1-495): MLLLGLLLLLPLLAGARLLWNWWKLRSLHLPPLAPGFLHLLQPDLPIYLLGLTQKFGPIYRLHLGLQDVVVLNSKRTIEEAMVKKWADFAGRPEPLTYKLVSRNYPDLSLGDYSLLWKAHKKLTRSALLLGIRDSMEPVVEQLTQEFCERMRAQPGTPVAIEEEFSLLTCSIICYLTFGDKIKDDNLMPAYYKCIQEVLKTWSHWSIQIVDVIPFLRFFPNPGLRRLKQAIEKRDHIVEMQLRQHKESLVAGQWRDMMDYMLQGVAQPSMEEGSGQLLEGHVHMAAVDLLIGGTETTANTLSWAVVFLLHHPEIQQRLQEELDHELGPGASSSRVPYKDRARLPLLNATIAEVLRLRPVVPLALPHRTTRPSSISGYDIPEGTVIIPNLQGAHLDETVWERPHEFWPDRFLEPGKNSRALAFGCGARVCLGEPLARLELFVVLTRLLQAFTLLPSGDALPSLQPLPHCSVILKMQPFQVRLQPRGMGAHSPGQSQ
Experimental: Proceeding using methods similar to those described in Biological Example 11, the percent inhibition at 100 nM was measured.
This assay was used to determine compound activity against Cyp21 enzyme. Human HEK 293-Cyp21 stable transfected cells (maintained in complete growth media DMEM+10% FBS, supplemented with 125 ug/mL Hygromycin) were seeded in a 96-well plate at 20,000 cells/well/100 uL in DMEM plus 10% FBS and allowed to attach overnight. The next day, 20 μL medium was carefully removed and 10 μL of 10× pre-made compounds in DMEM+10% FBS+10% methanol was transferred to the wells to final concentrations of 1000, 100, 10, 1, or 0.1 nM. Mock treatment was 1% methanol in growth media and the cells were left at 37° C., 5% CO2 for 5 hr. After the incubation, 10 μL of substrate progesterone (Sigma) was added to the wells to make a final concentration of 10 μM. The cells were incubated the cells at 37° C. for 20 hr. At the end of incubation, 90 μL of conditioned media was removed to measure DOC level by ELISA.
Preparation of the DOC ELISA: 100 μL of coating buffer (0.025M PBS pH 7.4) containing 200 ng/mL DOC-3-carboxymethyloxime-BSA (Steraloids. inc, Cat#3469-000) was added to each well of a 96-well plate and incubated overnight at 4° C. The next day, the plates were washed twice with 250 μl of wash solution (0.015M PBS pH 7.4 containing 0.05% Tween 20). After being washed, the wells were blocked with 250 μL blocking buffer (3% BSA in 0.025M PBS, pH 7.4) at 37° C. for 2 h. The plates were washed again 3 times as before, and then 90 μL of sample /standards (prepared in complete growth media) was added into the appropriate wells followed by 10 μL of antibody solution (1:450 rabbit anti-DOC in 0.6% BSA/PBS). The plates were incubated at room temperature for 2 h on a shaker. The contents of the wells were removed and the plate was washed 4 times. After the final wash, 100 μL of secondary antibody (1:12000 HRP-goat-anti-rabbit IgG conjugate 0.6% BSA/PBS) was added into each well. The plate was incubated at 30° C. for 45 min. The plate was washed again 4 times and 100 μL of TMB substrate solution was added to each well. The plate was incubated at room temperature for 10 min. 100 μL of stop solution was added to each well and the optical density was read at 450 nm.
The mean absorbance value for each sample was used to determine the corresponding concentration from the standard curve. Data was analyzed with “log(antagonist) vs response variable slope” under “non-linear regression analysis” using Prism5 software.

[3] = molecular target: T1, CYP17 (human testicular microsome); experiment: CYP17 enzymatic assay (% inhibition at 10 nM), version 1 (Biological Example 5); assay type: biochemical; conditions: 10 nM compound, DHEA by ELISA, read-out: Biological Example No. 5: CYP17 percent inhibition at 10 nM (version 1)
[4] = molecular target: T1, CYP17 (human testicular microsome); experiment: CYP17 enzymatic assay (IC50) (Biological Example 4); assay type: biochemical; conditions: human testicular microsome
[5] = tested on: rat Cyp11B enzyme (rat adrenal mitochondria); experiment: CYP11B enzymatic assay (% inhibition at 100 nM) (Biological Example 9); assay type: biochemical; conditions: for CYP11B enzymatic assay % inhibition at 100 nM (Biological Example No. 9): compound at 100 nM
Experimental: Adrenals excised from Sprague Dawley rats were homogenized, and mitochondria fraction were prepared by a series of centrifugation as described in Shuji Ohno, et al. J. of Steroid Biochemistry & Molecular Biology 2002, 80, 355-363. Prepared mitochondria protein was washed and resuspended in Buffer B (0.21 M mannitol, 70 mM sucrose, 5 mM MgCl2, 0.5 mM CaCl2, 20 mM Tris-HCl (pH 7.4) and 1 mM DTT, […]). The protein concentration was determined by BCA assay and stored as 10 μL aliquots at −80° C.
The rat Cyp11B enzyme assay was performed in 96-well plates. Typical assays were carried out in total 50 μL volume that included test compounds at 100 nM concentration, 1× Buffer B, 0.5 mM NADPH, 0.1 μM 11-deoxycortisol, and 2 μL of prepared rat adrenal mitochondria (added last). Reaction without test compound served as positive control and reaction without NADPH served as negative control. Reactions were allowed to incubate at 37° C. for 60 min with gentle shaking. The reaction was stopped by directly applying the enzymatic reaction mixture (1:5 diluted in ELISA assay buffer) to ELISA plate for evaluation of cortisol concentration according to manufacturer's protocol (Assay Design).
The mean absorbance value for each sample was used to determine the corresponding concentration from the standard curve. Amount of cortisol in the negative control (reaction that dis not include NADPH) was subtracted from total cortisol. Percent inhibition (inhibition %) of the compound was calculated using normalized cortisol concentration based on following formula: 100−([Cortisol] of compound/[Cortisol] of positive control *100).

[6] = Human liver microsome stability assay (Biological Example 8b); conditions: liver microsomes, pH 7.4
[7] = molecular target: T3, CYP17 (H295R cells) (Homo sapiens, UniProt P05093); experiment: CYP17 cellular assay (IC50), testosterone in H295R cells (Biological Example 7); assay type: cell-based; conditions: H295R cells
T3 construct: endogenous in cells; host or cells: H295R cells
T3 sequence (P05093 1-508): T1 sequence (P05093 1-508)
Method in brief: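 H295R cells cultured 24 h, then exposed to compound at 100, 10, 1, 0.1 nM final in serum-free DMEM/F-12 with ITS+ and 0.1% methanol for 24 h at 37 °C. Medium testosterone measured by ELISA and plotted against compound concentration.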

[8] = molecular target: T2, Cyp21 enzyme (Human HEK 293-Cyp21 stable transfected cells); experiment: CYP21-HEK293 enzymatic assay (IC50) (Biological Example 11); assay type: cell-based; conditions: HEK 293-Cyp21 cells; read-out: CYP21-HEK293 enzymatic assay IC50 (Biological Example No. 11)
[9] = 1 nM compound, DHEA by ELISA, read-out: Biological Example No. 12: CYP17 percent inhibition at 1 nM
[10] = 100 nM compound, read-out: Biological Example No. 10: CYP21-HEK293 percent inhibition at 100 nM
[11] = read-out: Biological Example No. 4: CYP17 enzymatic assay IC50
[12] = compound at 100 nM, read-out: Biological Example No. 10: CYP21-HEK293 enzymatic assay % inhibition at 100 nM
[13] = compound at 1 nM, read-out: CYP17 enzymatic assay % inhibition at 1 nM (Biological Example No. 12)

Structure (SMILES): C[C@]12CCC(=O)C=C1CCC1C2CC[C@]2(C)C(c3cccnc3)=CCC12 (stereo partly drawn) [B, (10R,13S)-10,13-dimethyl-17-(pyridin-3-yl)-6,7,8,9,10,11,12,13,14,15-decahydro-1H-cyclopenta[a]phenanthren-3(2H)-one, reference compound]
inhibition at 0.001 µM [1, 9]: > 50%
inhibition at 0.1 µM [2, 10]: ≥ 30%

Structure (SMILES): C[C@]12CC[C@H](O)CC1=CC[C@@H]1[C@@H]2CC[C@]2(C)C(c3cccnc3)=CC[C@@H]12 [C, (3S,8R,9S,10R,13S,14S)-10,13-dimethyl-17-(pyridin-3-yl)-2,3,4,7,8,9,10,11,12,13,14,15-dodecahydro-1H-cyclopenta[a]phenanthren-3-ol, reference compound]
inhibition at 0.01 µM [3]: > 80%
inhibition at 0.001 µM [1, 9]: > 50%
IC50 ([4]; DHEA by ELISA, read-out: Biological Example No. 4: CYP17 enzymatic assay IC50): < 11 nM
Biological Example No. 9: CYP11B percent inhibition at 100 nM ([5]; 100 nM compound, cortisol by ELISA): T (T means the compound had a percent inhibition of less than 32% when tested at 100 nM)
half-life at 1 μM [6]: 1 to 50 min
IC50 ([7]; testosterone by ELISA, 24 hours, read-out: Biological Example No. 7: CYP17 cellular assay IC50): < 15 nM

Structure (SMILES): CC1CC2C3=CC=C(c4cncc(N)c4)[C@@]3(C)CCC2[C@@]2(C)CCC(=O)C=C12 (stereo partly drawn) [Compound 329, (10R,13S)-17-(5-aminopyridin-3-yl)-6,10,13-trimethyl-6,7,8,9,10,11,12,13-octahydro-1H-cyclopenta[a]phenanthren-3(2H)-one]
IC50 [4, 11]: < 11 nM
inhibition at 0.1 µM [2, 12]: < 30%

Structure (SMILES): C[C@]12CCC3C(CCC4=CC(=O)CC[C@@]43C)C1=CC=C2c1cncc(N)c1 (stereo partly drawn) [Compound 360, (10R,13S)-17-(5-aminopyridin-3-yl)-10,13-dimethyl-6,7,8,9,10,11,12,13-octahydro-1H-cyclopenta[a]phenanthren-3(2H)-one]
IC50 [4, 11]: < 11 nM
inhibition at 0.1 µM [2, 12]: < 30%

Structure (SMILES): C[C@]12CCC(=O)C=C1CC[C@@H]1[C@@H]2CC[C@]2(C)C(c3cccnc3)CC[C@@H]12 (stereo partly drawn) [Compound 419, (10R,13S)-10,13-dimethyl-17-(pyridin-3-yl)-6,7,8,9,10,11,12,13,14,15,16,17-dodecahydro-1H-cyclopenta[a]phenanthren-3(2H)-one]
inhibition at 0.001 µM [1, 13]: 10 to 50%
inhibition at 0.1 µM ([2]; compound at 100 nM, read-out: CYP21-HEK293 enzymatic assay % inhibition at 100 nM (Biological Example No. 10)): ≥ 30%

More lines, main results first:

inhibition at 0.01 µM [3]: 50 to 80%
inhibition at 0.1 µM [2, 10]: ≥ 30%
Structure (SMILES): CCc1cncc(C2=CC[C@H]3[C@@H]4CCC5=CC(=O)N(C)CC[C@]5(C)[C@H]4CC[C@]23C)c1 [Compound 145]

inhibition at 0.001 µM [1, 13]: 10 to 50%
IC50 [8]: 10 to 100 nM
IC50 ([4]; read-out: CYP17 enzymatic assay IC50 (Biological Example No. 4)): < 11 nM
Structure (SMILES): CCC(=O)N1CCC[C@@]2(C)[C@@H](CC[C@@H]3[C@@H]2CC[C@]2(C)C(n4ccnc4)=CC[C@@H]32)C1 [Compound 441, 1-((5aR,5bS,7aS,10aS,10bR,12aR)-8-(1H-imidazol-1-yl)-5a,7a-dimethyl-3,4,5,5a,5b,6,7,7a,10,10a,10b,11,12,12a-tetradecahydrocyclopenta[5,6]naphtho[2,1-c]azepin-2(1H)-yl)propan-1-one]
CYP11B enzymatic assay % inhibition at 100 nM (Biological Example No. 9) [5]: U (U means the compound had a percent inhibition of greater than or equal to 32%)

inhibition at 0.001 µM [1, 13]: 10 to 50%
IC50 ([7]; testosterone, read-out: CYP17 cellular assay IC50 (Biological Example No. 7)): < 15 nM
Structure (SMILES): Cc1ccncc1C1=CCC2C3CN(C)C4=CC(=O)CC[C@]4(C)C3CC[C@]12C (stereo partly drawn) [Compound 444, (9aR,11aS)-5,9a,11a-trimethyl-1-(4-methylpyridin-3-yl)-3b,4,5,8,9,9a,9b,10,11,11a-decahydro-3H-cyclopenta[i]phenanthridin-7(3aH)-one]
CYP11B enzymatic assay % inhibition at 100 nM (Biological Example No. 9) [5]: U (U means the compound had a percent inhibition of greater than or equal to 32%)
